From publication PMC9612383, “Biological Activity of NHC-Gold-Alkynyl Complexes Derived from 3-Hydroxyflavones” (Pharmaceutics, 2022)

How the values were obtained:
[1] = molecular target: T1, dihydrofolate reductase (DHFR) (Escherichia coli, UniProt P0ABQ4); assay: DHFR activity assay in E. coli lysates; assay type: biochemical; conditions: E. coli lysates incubated with complex; p < 0.05
T1 construct: to 0.01–0.03 mg of cell lysate and completed with reaction buffer; endogenous in cells; host or cells: E. coli (lysate)
Experimental: For sample preparation, E. coli were lysated by sonication. After ultrasonic homogenization, the lysate was centrifuged 1 min at 13,000 rpm and the pellet was resuspended in extraction buffer. […] Both extraction and reaction buffer consisted of 10 mM Tris-HCl, 1 mM EDTA, 100 mM NaCl and protease inhibitor.

[2] = test system: panel of Gram-positive and Gram-negative strains; assay: Disk diffusion method, whole panel (summary in words); assay type: cell-based; conditions: whole panel, Gram-positive and Gram-negative strains
Experimental: (§1) To evaluate the antibacterial potential of gold derivatives, […] bacterial strains were selected: E. coli, P. aeruginosa, S. enterica, E. faecalis, L. monocytogenes, S. epidermidis, S. aureus. Dis diffusion assay was performed following Clinical & Laboratory Standards Institute (CLSI) recommendations. Active cultures (0.5 McFarland) from all strains were spread onto Mueller–Hinton Agar (MHA, Oxoid, Basingstoke, UK) and disks impregnated with 10 µL of each gold complex or control (DMSO for negative control, phenol for positive control) were placed. Plates were and incubated for 22 h ± 2 h at 37 °C ± 1 °C and then the diameter of the inhibition zone was determined.
Given that NHC-gold derivatives might display antibacterial activity, we evaluated the antibacterial effect of the complexes toward a panel of Gram-positive and Gram-negative strains using the disk diffusion method. The selected strains are human pathogen or commensal bacteria and the results are summarized on Table 1.

[3] = test system: Caco-2 cells; assay: Intracellular ROS levels; assay type: cell-based, Human; conditions: Caco-2 cells, 10, 20 and 40 μM, 1 h incubation; p > 0.05
Experimental: Caco-2 cells were grown in 96-well plates (4000 cells/well) and incubated overnight at 5% CO2 and 37 °C. Then, cells were exposed to the required concentration of gold complex for 1 h and total intracellular ROS levels determination was performed as previously described by Sanchez-de-Diego et al..

[4] = test system: E. coli; assay: Scanning electron microscopy of treated E. coli; assay type: cell-based; conditions: E. coli treated at 1/2× MIC and MIC, 24 h
Experimental: 500 μL of a E. coli culture (10^7 CFU mL^−^1) were added per well to a 12-well plate and were further treated with the complex 1b at its MIC and 1/2× MIC. A positive control of bacteria without any treatment and a negative control of only culture medium were included, following the same protocol as the rest of the conditions. Then, the plate was incubated at 37 °C with mild agitation for 24 h. After this time, the bacterial suspensions were transfered into 1.5 mL centrifugation tubes. Then, the bacteria were washed and fixed using glutaraldehyde 2.5% in phosphate buffer 10 mM at pH 7.2, with 2 h incubation. Then, bacteria were gradually dehydrated using EtOH solutions at different v/v% (25, 50, 75 and 100). 10 µL of the dehydrated bacteria solution was placed on a 5 × 5 mm Si waffle, left to dry and coated with a thin layer of carbon.

[5] = test system: S. enterica 25928; assay: Disk diffusion test; assay type: cell-based; conditions: complex 5 μg, 24 h incubation; diameter including disk (6 mm)
Experimental: as §1

T1 sequence (P0ABQ4 whole entry): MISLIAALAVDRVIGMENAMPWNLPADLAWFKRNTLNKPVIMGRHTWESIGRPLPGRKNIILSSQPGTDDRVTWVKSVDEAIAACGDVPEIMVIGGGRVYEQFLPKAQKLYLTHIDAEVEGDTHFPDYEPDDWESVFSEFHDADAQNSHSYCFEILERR

Cn1cc[n+](C)[c]1[Au-][C]#CCOc1c(-c2ccc(Br)cc2)oc2ccccc2c1=O [1b, [Au(Lb)(IMe)] (R = Br; IMe = C5H10N2)]
DHFR activity (percentage respect to control) [1]: significantly decreased DHFR activity | antibacterial effect (in words) [2]: able to interfere with the development of both Gram positive and Gram negative strains | reactive oxygen species (ROS) levels [3]: no significant changes | cell morphology by SEM [4]: rougher surface of bacteria, with the presence of wrinkles and creases | size (length) of bacteria by SEM [4]: shrinking of bacteria, which is concentration dependent | Inhibition Zone [5]: 8.90 ± 1.56 mm
